Starred links: 1 amine or outer side, 2 acyl side, 3 side chain; linkers in the order of their positions; H or OH if unused. Positions of bridges follow the written chain, without caps; N, C: chain ends. Groups on a side chain read outwards from the residue. Chains are numbered I, II in the order given. No end group written: not given here. *: point of attachment. Phe(Nα-CONH2) = NC(=O)N[C@@H](Cc1ccccc1)C(=O)*; C20 diacid = O=C(O)CCCCCCCCCCCCCCCCCCC(=O)*; C18 diacid = O=C(O)CCCCCCCCCCCCCCCCC(=O)*; C16 diacid = O=C(O)CCCCCCCCCCCCCCC(=O)*; NMe2Phe = CN(C)[C@@H](Cc1ccccc1)C(=O)*; γGlu = O=C(O)[C@H](CCC(=O)[*:2])N[*:1]; Hydantoyl = NC(=O)NCC(=O)*; AEEA = NCCOCCOCC(=O)O; Me2Gly = CN(C)CC(=O)*
Columns and labels:
[1] = biological target: T1, human insulin receptor (IR-A) (Homo sapiens, UniProt P06213); experiment: Insulin receptor affinity, SPA antibody capture assay, 0% HSA; type: binding; conditions: relative to affinity of human insulin
Protocol: (§1) The affinity of the acylated insulin analogues of this invention for the human insulin receptor is determined by a SPA assay (Scintillation Proximity Assay) microtiterplate antibody capture assay. SPA-PVT antibody-binding beads, anti-mouse reagent (Amersham Biosciences, Cat No. PRNQ0017) are mixed with 25 ml of binding buffer (100 mM HEPES pH 7.8; 100 mM sodium chloride, 10 mM MgSO4, 0.025% Tween-20). Reagent mix for a single Packard Optiplate (Packard No. 6005190) is composed of 2.4 μl of a 1:5000 diluted purified recombinant human insulin receptor (either with or without exon 11), an amount of a stock solution of A14Tyr[^125I]-human insulin corresponding to 5000 cpm per 100 μl of reagent mix, 12 μl of a 1:1000 dilution of F12 antibody, 3 ml of SPA-beads and binding buffer to a total of 12 ml. A total of 100 μl reagent mix is then added to each well in the Packard Optiplate and a dilution series of the insulin derivative is made in the Optiplate from appropriate samples. The samples are then incubated for 16 hours while gently shaken. The phases are the then separated by centrifugation for 1 min and the plates counted in a Topcounter. The binding data were fitted using the nonlinear regression algorithm in the GraphPad Prism 2.01 (GraphPad Software, San Diego, Calif.) and affinities are expressed relative (in percentage (%)) to the affinity of human insulin.

[2] = biological target: T1, human insulin receptor (IR-A); conditions: relative to affinity of human insulin; […] HSA in binding buffer
Protocol: as §1
A related assay is also used wherein the binding buffer also contains 1.5% HSA in order to mimic physiological conditions

[3] = test system: primary rat adipocytes; experiment: Lipogenesis in rat adipocytes; type: cell-based; conditions: relative potency vs human insulin, unit %
Protocol: As a measure of in vitro potency of the insulins of the invention, lipogenesis can be used.
Primary rat adipocytes are isolated from the epididymale fat pads and incubated with 3H-glucose in buffer containing e.g. 0.1% fat free HSA and either standard (human insulin, HI) or insulin of the invention. The labelled glucose is converted into extractable lipids in a dose dependent way, resulting in full dose response curves.

[4] = Hydrophobicity by isocratic reverse phase HPLC (k'rel); type: physicochemical; conditions: human insulin = 1, RP-HPLC pH 7.3
Protocol: The elution time of the insulin derivative is compared to that of human insulin (herein designated HI) or another derivative with a known hydrophibicity under the same conditions. The hydrophobicity, k′rel, is calculated as: k′relderiv=((tderiv−t0)/(tref−t0))*k′relref. Using HI as reference: k′relref=k′relHI=1. The void time of the HPLC system, t0, is determined by injecting 5 μl of 0.1 mM NaNO3. Running conditions:
Column: Lichrosorb RP-C18, 5 μm, 4×250 mm
Buffer A: 0.1 M natrium phosphate pH 7.3, 10 vol % CH3CN
After running an initial gradient, the isocratic level for running the derivative and reference (for example HI) is chosen, and the elution times of the derivative and reference under isocratic conditions are used in the above equation to calculate k′relderiv.

[5] = test system: duodenum lumen enzymes; experiment: Degradation of insulin analogs using duodenum lumen enzymes; conditions: degradation half time divided by that of reference insulin; rat duodenum enzymes, pH 7.4, 37° C.
Protocol: Degradation of insulin analogs using duodenum lumen enzymes (prepared by filtration of duodenum lumen content) from SPD rats. The assay is performed by a robot in a 96 well plate (2 ml) with 16 wells available for insulin analogs and standards. Insulin analogs ˜15 μM are incubated with duodenum enzymes in 100 mM Hepes, pH=7.4 at 37° C., samples are taken after 1, 15, 30, 60, 120 and 240 min and reaction quenched by addition of TFA. Intact insulin analogs at each point are determined by RP-HPLC. Degradation half time is determined by exponential fitting of the data and normalized to half time determined for the reference insulins, A14E, B25H, desB30 human insulin or human insulin in each assay. The amount of enzymes added for the degradation is such that the half time for degradation of the reference insulin is between 60 min and 180 min.

[6] = Chemical stability of insulin analogues formulated in lipid formulations (UPLC purity, SEC HMWP); type: physicochemical; conditions: lipid formulation, 4 weeks, 30° C.
Protocol: Chemical stability of insulin analogues formulated in lipid formulations was assessed according to the protocol described here.
Composition of the formulation: […]
Insulin to be tested (75 μM)
The insulin to be tested (lyophilised from pH 7.5) is dissolved in propylenglycol in the dark for 16 hours. Diglycerol caprylate is added ad the mixture is stirred. Tween 20 is added and the mixture is stirred for 5 minutes. The mixture is gently agitated until it is homogeneous.
Extraction-mix: 1-butanol+0.1% (w/w) Tween80, 0.1M Na2HPO4/NaH2PO4 pH 7.0 • 1. The formulations are allowed to reach room temperature. • 2. To each Eppendorf tube 20 μl of the formulations are added. • 3. Add 490 μl 1-butanol followed by addition of 990 μl of the phosphate buffer. Vortex and incubate at RT for 30 min. • 4. Vortex again and centrifuge at RT at 14000 rpm for 20 min. Analyse the bottom aqueous phase for purity and HMWP formation.
Alternatively another extraction method can be used: • 1. The formulations are allowed to reach room temperature. • 2. To each Eppendorf tube 50 μl of the formulations are added. • 3. Add 950 μl of extraction buffer. Vortex well. Immediately after, load 800 μl (2×400 μl) for purification on the spin column. See spin protocol below. Ion Exchange on Q Spin Columns from Sartorius
(In the following all spin steps are for 5 min at 2000×g.) • 1. Apply 400 μl equilibration buffer to each spin column, and spin. Discard the flow-through. • 2. Apply 2×400 μl of each extracted sample. Spin the column between each application. Discard the flow-through. • 3. Apply 400 μl washing buffer to wash each spin column, and spin. Discard the wash. • 4. Apply 400 μl elution buffer to each spin column, and spin. Analyse the elution for purity and HMWP formation
Column: Waters BEH Shield RP18 UPLC column (2.1×100 mm, 1.7 μm)
Buffer A: 0.09M di-ammonium hydrogen phosphate pH 3.0, 10% (v/v) acetonitrile
Buffer B: 90% acetonitrile.
Column: Waters Insulin HMWP SEC column
Buffer: 500 mM NaCl, 10 mM NaH2PO4, 5 mM H3PO4, 50% (v/v) 2-propanol

T1 sequence (P06213 28-746 isoform P06213-2 limits assumed): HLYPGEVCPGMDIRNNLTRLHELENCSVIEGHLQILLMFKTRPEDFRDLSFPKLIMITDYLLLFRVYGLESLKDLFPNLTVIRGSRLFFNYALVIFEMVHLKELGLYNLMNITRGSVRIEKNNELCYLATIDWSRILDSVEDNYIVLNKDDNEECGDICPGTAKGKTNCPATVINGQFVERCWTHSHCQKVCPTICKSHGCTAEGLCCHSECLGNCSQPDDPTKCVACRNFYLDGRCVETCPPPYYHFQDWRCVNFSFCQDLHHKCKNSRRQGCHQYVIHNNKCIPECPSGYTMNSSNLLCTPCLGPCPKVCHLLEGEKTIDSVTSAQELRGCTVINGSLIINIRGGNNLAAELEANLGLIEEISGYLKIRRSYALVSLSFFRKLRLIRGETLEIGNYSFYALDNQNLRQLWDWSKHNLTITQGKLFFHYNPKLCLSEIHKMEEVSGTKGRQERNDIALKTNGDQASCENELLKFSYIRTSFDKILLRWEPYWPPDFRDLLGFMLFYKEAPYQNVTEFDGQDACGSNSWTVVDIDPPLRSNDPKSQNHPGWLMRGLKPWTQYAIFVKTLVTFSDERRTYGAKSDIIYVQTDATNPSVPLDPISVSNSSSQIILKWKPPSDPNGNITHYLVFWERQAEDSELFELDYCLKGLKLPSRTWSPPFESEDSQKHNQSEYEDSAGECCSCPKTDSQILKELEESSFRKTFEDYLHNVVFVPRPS
T1 sequence (P06213 763-1382 partner limits assumed): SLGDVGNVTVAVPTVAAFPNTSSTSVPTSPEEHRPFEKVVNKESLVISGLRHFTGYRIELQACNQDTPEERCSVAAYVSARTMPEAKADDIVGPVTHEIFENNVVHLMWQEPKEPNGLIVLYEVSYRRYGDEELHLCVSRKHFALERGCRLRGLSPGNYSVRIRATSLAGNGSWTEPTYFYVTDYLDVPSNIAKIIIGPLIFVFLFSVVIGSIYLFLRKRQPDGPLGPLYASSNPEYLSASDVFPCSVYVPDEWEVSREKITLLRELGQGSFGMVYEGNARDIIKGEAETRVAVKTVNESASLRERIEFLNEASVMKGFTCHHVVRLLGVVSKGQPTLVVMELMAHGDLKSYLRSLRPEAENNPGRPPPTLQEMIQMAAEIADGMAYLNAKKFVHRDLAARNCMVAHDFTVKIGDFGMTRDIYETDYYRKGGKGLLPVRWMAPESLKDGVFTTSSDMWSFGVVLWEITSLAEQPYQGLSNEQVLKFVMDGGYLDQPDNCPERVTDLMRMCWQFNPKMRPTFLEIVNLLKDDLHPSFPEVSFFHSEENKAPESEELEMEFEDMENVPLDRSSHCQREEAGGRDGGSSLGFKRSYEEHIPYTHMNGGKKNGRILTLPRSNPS

Substance	Relative IR-A affinity (@ 0% HSA) (%) [1]	Relative IR-A affinity (@ […] HSA) (%)e [2]	Lipogenesis in rat adipocytres (@ 0.1% HSA) rel. to human insulin [3]	Hydrophobicity rel. to human insulin [4]	Duodenum degradation. Relative stability vs. A14E, B25H, desB30 human insulin [5]	HMWP formed (%) 4 weeks [6]	Impurities formed (%) 4 weeks [6]
A1(N,N-Dimethyl), A14E, B1(N,N-dimethyl), desB27, B29K(N^εoctadecanedioyl-gGlu-2xOEG), desB30 human insulin [Example 6]	17.0%	0.98%	0.60%	–	–	–	–
A1G(N^α, N^α-Dimethyl), A14E, B1F(N(alpha), N(N^α, N^α-dimethyl), B25H, desB27, B29K(N^εhexadecanedioyl-gGlu-2xOEG), desB30 human insulin [Example 9]	2.5%	0.33%	1.34%	0.10	9.2	–	–
I: NMe2Phe-VNQHLCGSHLVEALHLVCGERGFHYTPK([γGlu-C16 diacid]) / II: Me2Gly-IVEQCCTSICSLEQLENYCN (disulfide I:6-II:6, I:18-II:19, II:5-II:10) [Example 3, A1(N^α,N^α-Dimethyl), A14E, B1(N^α, N^α-dimethyl), B16H, B25H, B29K(N^εhexadecanedioyl-gGlu), desB30 human insulin]	0.6%	0.06%	–	–	3.1	–	–
I: NMe2Phe-VNQHLCGSHLVEALYLVCGERGFHYTPK([AEEA-AEEA-γGlu-C18 diacid]) / II: Me2Gly-IVEQCCTSICSLEQLENYCN (disulfide I:6-II:6, I:18-II:19, II:5-II:10) [Example 1, A1(N^α, N^α-Dimethyl), A14E, B1(N^α, N^α-dimethyl), B25H, B29K(N^εoctadecanedioyl-gGlu-2xOEG), desB30 human insulin]	1.5%	0.09%	0.10%	0.38	1.2	0.4%	9.8%
I: {Phe(Nα-CONH2)}-VNQHLCGSHLVEALHLVCGERGFFYPK([AEEA-AEEA-γGlu-C20 diacid]) / II: Hydantoyl-IVEQCCTSICSLEQLENYCN (disulfide I:6-II:6, I:18-II:19, II:5-II:10) [Example 22]	–	–	–	–	7.7	–	–
I: {Phe(Nα-CONH2)}-VNQHLCGSHLVEALHLVCGERGFHYTPK([AEEA-AEEA-γGlu-C20 diacid]) / II: Hydantoyl-IVEQCCTSICSLEQLENYCN (disulfide I:6-II:6, I:18-II:19, II:5-II:10) [Example 16, A1(N^α-Carbamoyl), A14E, B1(N^α-Carbamoyl), B16H, B25H, B29K(N^εeicosanedioyl-gGlu-2xOEG), desB30 human insulin]	0.1%	0.01%	–	–	0.4	–	–
I: {Phe(Nα-CONH2)}-VNQHLCGSHLVEALYLVCGERGFHYPK([AEEA-AEEA-γGlu-C20 diacid]) / II: Hydantoyl-IVEQCCTSICSLEQLENYCN (disulfide I:6-II:6, I:18-II:19, II:5-II:10) [Example 28, A1G(N^αcarbamoyl), A14E, B1F(N^αcarbamoyl), B25H, desB27, B29K(N^εeicosanedioyl-gGlu-2xOEG), desB30 human insulin]	0.7%	0.25%	–	–	2.1	–	–
I: {Phe(Nα-CONH2)}-VNQHLCGSHLVEALYLVCGERGFHYTPK([AEEA-AEEA-γGlu-C18 diacid]) / II: Hydantoyl-IVEQCCTSICSLEQLENYCN (disulfide I:6-II:6, I:18-II:19, II:5-II:10) [Example 12, A1(N^αCarbamoyl), A14E, B1(N^αCarbamoyl), B25H, B29K(N^εoctadecanedioyl-gGlu-2xOEG), desB30 human insulin]	0.3%	0.06%	0.02%	0.15	1.5	0.2%	4.4%
I: {Phe(Nα-CONH2)}-VNQHLCGSHLVEALYLVCGERGFHYTPK([AEEA-AEEA-γGlu-C20 diacid]) / II: Hydantoyl-IVEQCCTSICSLEQLENYCN (disulfide I:6-II:6, I:18-II:19, II:5-II:10) [Example 15, A1(N^αCarbamoyl), A14E, B1(N^αCarbamoyl), B25H, B29K(N^εeicosanedioyl-gGlu-2xOEG), desB30 human insulin]	0.2%	0.02%	–	–	0.6	–	–

— US20140315797A1, “Novel N-Terminally Modified Insulin Derivatives” (priority 2010, published 2014)
